Experimental findings from patent publication US20180072675A1, “ANTIMICROBIAL PYRIDINOHYDRAZIDE AND HYDRAZOMETHYLPYRIDINE-BASED AGENTS” (Board of Supervisors of Louisiana State University and …, priority 2015, published 2018) are described below.

The subject of data set [1] is Candida albicans (ATCC Accession No. 10231). Put plainly: MIC80 fungal growth inhibition, C. albicans ATCC 10231. The format is cell-based. The following applies: for MIC80: Candida albicans. In a few lines:
(§1)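 Broth microdilution per CLSI M27-A3 in HEPES-buffered RPMI-1640, against C. albicans ATCC 10231, C. glabrata ATCC 48435 and azole-susceptible (TW1) and azole-resistant (TW17) clinical isolates from one AIDS patient. MIC80 read visually as lowest concentration inhibiting >80% growth versus 1% DMSO controls.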

Data set [2] deals with C. albicans clinical isolate 17 (TW17). Description: MIC80 fungal growth inhibition, clinical isolate TW17. The format is cell-based, Candida albicans. The note with it: for MIC80: Candida albicans, read-out: MIC80 TW17. In a few lines:
as §1

In data set [3] the test system is Candida albicans ATCC Accession No. 10231. Put plainly: Checkerboard synergy assay with fluconazole. Format: cell-based. The following applies: for FIC Fluc: average FIC of fluconazole at varying concentrations of the test drug; for FIC Test: average FIC of the test drug at varying concentrations of fluconazole; for Activity (interaction with fluconazole): from FIC index; for FIC Index: sum of the two FICs, <1 synergistic, >=1 antagonistic. As to the method: Considering that two different modes of activity (cidal and static) were observed depending on the structural motifs present in our analogs, we performed a series of checkerboard assays to determine if representative active compounds were in fact acting in synergy with the azole, fluconazole. Each of these assays tested multiple concentrations of the selected analog in the presence of multiple concentrations of fluconazole. All checkerboard assays were prepared in 96-well plates. 200 μl of previously prepared drug solutions were added to each well in column 2. Using a multichannel pipette, 100 μl from each well in column 2 was serially diluted (1:2) horizontally across the plate, stopping at column 10. Contents of each well were mixed thoroughly. Column 11 was reserved for fluconazole MIC control and contained no other drug. 100 μl of media was added to each well, column 2-10. Each well was mixed thoroughly with a multichannel pipette. 100 μl was then removed and discarded from these wells. 100 μl of previously prepared fluconazole dilution was added to each well in row B. Using a multichannel pipette, 100 μl from each well was serially diluted (1:2) vertically down the plate, stopping at row F. Contents of each well were mixed thoroughly. Row G was reserved for tested drug MIC control and contained no fluconazole. Well G11 contained neither drug and served as a drug-free growth control. The final 100 μl from each well in row F was discarded.
The fungal samples were prepared from glycerol stocks of Candida albicans ATCC Accession No. 10231. The inoculum's concentration was adjusted to a McFarland standard between 0.08 and 0.12. Inoculum was then diluted at a ratio of 1:37.5 in buffered media. 100 μl of inoculum-media solution was added to each well. Following inoculation, the 96-well plates were wrapped in parafilm to prevent evaporation and incubated for overnight at 35° C. After 18 h, the wells showing growth were recorded.
Synergistic activity was determined based on the MIC read from these plates. The fractional inhibitory concentration (FIC) for a given well is the ratio of the minimum inhibitory concentration of one drug A in the presence another drug B to the minimum inhibitory concentration with only drug A. The FIC was calculated for the test drug in each of the wells along the growth/no-growth interface at varying concentrations of fluconazole, then these values were averaged to determine the average FIC for the test drug. The same process was used to calculate the average FIC for fluconazole at varying concentrations of the test drug. The sum of these two FICs gives the FIC index which can be used to determine the synergistic effect between the two drugs (Hsieh et al., Diagn. Microbiol. Infect. Dis. (1993) 16: 343-349). An FIC index value less than 1 indicated synergistic interactions between the two drugs while an FIC index value greater than or equal to 1 indicated antagonistic interactions.

A further data set concerns Vero (kidney) cells. Description: Mammalian cell toxicity, Promega CellTiter 96, kidney cells. Format: cell-based. The note with it: 24 h. As for the experimental part:
Cytotoxicity was determined using non-cancerous Vero cells (kidney-african green monkey) and liver cells (Hep-2G) in accordance with Promega CellTiter 96 Non-Radioactive Cell Proliferation Assay (cat # G4000). Compounds were diluted in media and all assays were done in triplicate. Average values are presented, with ±SD. Cells were incubated in the presence of the compounds for 24 h at 37° C. and 5% CO2. Tetrazolium dye solution was added to each well and allowed to incubate for 1-4 h. Solubilization/Stop solution was added and allowed to sit at room temperature for 1 h. Formazan product was scored spectrophotometrically with an automatic plate reader set at 570 nm. Positive control wells for cell death were briefly treated with 0.1% saponin, immediately prior to the addition of dye solution. Wells containing 1% DMSO and no drug were used as a negative control and the average absorbance at 570 nm were set to 100%. The percent of cells viable were calculated as a ratio between the average absorption at 570 nm of the drug containing wells/average absorption at 570 nm of the control (no drug). Ratios were multiplied by 100 to give the values as a percentage as expressed on the y-axis.
Cytotoxicity studies were performed in accordance with Promega CellTiter 96 Non-RadioactivCell Proliferation Assay (cat #G4000). All cytotoxicity studies used a negative control (wells of either kidney or liver cells containing 1% DMSO but lacking the analog), a positive control (wells of either kidney or liver cells treated with the known cytotoxic agent, saponin) and the serial dilutions of the novel analogs. All control (negative) wells were normalized to 100% viable cells to accurately show the percentage of either liver or kidney cells that remained alive and viable following either overnight incubation with the analogs or 5-minute treatment with 0.1% saponin.

The mark [4] stands for this setting: ATCC10231, Azole-susceptible, >80% growth inhibition, visual scoring, read-out: MIC80 C. albicans ATCC No. 10231.
[5] abbreviates: Azole-resistant, >80% growth inhibition, visual scoring.
Setting [6] is: Azole-susceptible, >80% growth inhibition, visual scoring.

Molecules are shown by their SMILES. ≈ marks a conversion by molar mass, not a printed value. Like-named read-outs stand apart in the source and are kept apart here.

In general, MIC80 refers to the lowest concentration that inhibits either 80% of growth or 80% of the strains tested, depending on the study. For `Cc1ccc(O)c(/C=N/NC(=O)c2ccccn2)c1` [AR2, (E)-N′-(2-Hydroxy-5-methylbenzylidene)picolinohydrazide], the MIC80 in data set [1] (setting [4]) came to 2 µg/mL (≈ 7.83 µM). Also, in data set [2] (setting [5]), the MIC80 turned out to be 8 µg/mL (≈ 31.3 µM). Further, in data set [3], the “FIC Fluc” value was 1.00, the “FIC Test” value came out at 1.00, the “Activity (interaction with fluconazole)” value is “Antagonistic” and the “FIC Index” value is given as 2.00. Also, the cell toxicity result in the data set on Vero (kidney) cells (100× MIC) is recorded as “minimal toxicity”.

Take `O=C(NN=Cc1cc([N+](=O)[O-])ccc1O)c1cccnc1` [AR12]: in data set [1] (setting [6]), the “MIC80 C. albicans ATCC No. 10231” value came out at 4 µg/mL (≈ 14 µM). In data set [2] (setting [5]), the “MIC80 TW17” value stood at 8 µg/mL (≈ 27.9 µM). Moreover, in data set [3], the “FIC Fluc” value is given as 1.00, the “FIC Test” value was found to be 1.00, the “Activity (interaction with fluconazole)” value is listed as “Antagonistic” and the “FIC Index” value was found to be 2.00. In the data set on Vero (kidney) cells (5 times the MIC), the cell toxicity entry is listed as “elevated toxicity”.

Turning to `O=C(NN=Cc1cc([N+](=O)[O-])ccc1O)c1ccncc1` [AR18], in data set [1] (setting [6]), the “MIC80 C. albicans ATCC No. 10231” value came out at 4 µg/mL (≈ 14 µM). For the same compound, the “MIC80 TW17” value in data set [2] (setting [5]) came out at 8 µg/mL (≈ 27.9 µM). Besides, in data set [3], the “FIC Fluc” value amounted to 1.00, the “FIC Test” value worked out at 1.00, the “Activity (interaction with fluconazole)” value is given as “Antagonistic” and the “FIC Index” value came out at 2.00. The cell toxicity entry in the data set on Vero (kidney) cells (100× MIC) is given as “minimal cytotoxicity”. In addition, the cell toxicity entry in the data set with Vero (kidney) cells (through 10× MIC) is “not toxic”.

As to `O=C(N/N=C/c1cc(Br)ccc1O)c1ccc[n+]([O-])c1` [AR27], the MIC80 in data set [1] (setting [4]) turned out to be 16 µg/mL (≈ 47.6 µM). Moreover, in data set [2] (setting [5]), the MIC80 worked out at 8 µg/mL (≈ 23.8 µM). Moreover, in data set [3], the “FIC Fluc” value was 0.92, the “FIC Test” value was 1.00, the “Activity (interaction with fluconazole)” value is “Antagonistic” and the “FIC Index” value was determined as 1.92. For the same compound, the cell toxicity entry in the data set on Vero (kidney) cells (5 times the MIC) is recorded as “cytotoxic”.

In the case of `C(=N\Nc1ccccc1)/c1cccnc1` [AR44], the MIC80 in data set [1] (setting [4]) was found to be 16 µg/mL (≈ 81.1 µM). Moreover, the MIC80 in data set [2] (setting [5]) is 8 µg/mL (≈ 40.6 µM). For the same compound, in data set [3], the “FIC Fluc” value turned out to be 1.00, the “FIC Test” value stood at 0.90, the “Activity (interaction with fluconazole)” value was “Antagonistic” and the “FIC Index” value is given as 1.90. In the data set on Vero (kidney) cells (100× MIC), the cell toxicity result was “toxic”. The cell toxicity result in the data set on Vero (kidney) cells (through 10× MIC) is “no cell toxicity”.

In the case of `C(=N\Nc1ccccc1)/c1ccncc1` [AR48], the MIC80 in data set [1] (ATCC10231, read-out: MIC80 C. albicans ATCC No. 10231) was 31 µg/mL (≈ 157 µM). For the same compound, the MIC80 in data set [2] came out at 8 µg/mL (≈ 40.6 µM). For the same compound, in data set [3], the “FIC Fluc” value is recorded as 3.87, the “FIC Test” value stood at 0.80, the “Activity (interaction with fluconazole)” value was “Antagonistic” and the “FIC Index” value is 4.67. Further, in the data set with Vero (kidney) cells (100× MIC), the cell toxicity entry was “toxic”. Also, the cell toxicity entry in the data set with Vero (kidney) cells (through 10× MIC) is recorded as “no cell toxicity”.
